Results on twelve molecules are retold here after US11339130B1 (Blade Therapeutics, Inc., priority 2016, dated 2022).

Test [1] deals with Calpain activity in SH-SY5Y cells. The experiment in a line: SH-SY5Y + AMC fluorescence assay (Suc-LLVY-AMC substrate). The format is cell-based. The following applies: read-out: SH-SY5Y + AMC IC50.
Test [2] has as its system Calpain activity in SH-SY5Y cells (SBDP-150). The experiment in a line: SH-SY5Y Spectrin western blot assay (SBDP-150 breakdown product, A23187-induced). The format is cell-based. To be noted: Homo sapiens, SH-SY5Y cells, read-out: SH-SY5Y Spectrin IC50. On the technique in general: Immunoblotting shows a protein as a band on a membrane.
The next test deals with T1, Human Calpain 9/NS1 (Homo sapiens, UniProt O14815).
T1 sequence (O14815 1-690): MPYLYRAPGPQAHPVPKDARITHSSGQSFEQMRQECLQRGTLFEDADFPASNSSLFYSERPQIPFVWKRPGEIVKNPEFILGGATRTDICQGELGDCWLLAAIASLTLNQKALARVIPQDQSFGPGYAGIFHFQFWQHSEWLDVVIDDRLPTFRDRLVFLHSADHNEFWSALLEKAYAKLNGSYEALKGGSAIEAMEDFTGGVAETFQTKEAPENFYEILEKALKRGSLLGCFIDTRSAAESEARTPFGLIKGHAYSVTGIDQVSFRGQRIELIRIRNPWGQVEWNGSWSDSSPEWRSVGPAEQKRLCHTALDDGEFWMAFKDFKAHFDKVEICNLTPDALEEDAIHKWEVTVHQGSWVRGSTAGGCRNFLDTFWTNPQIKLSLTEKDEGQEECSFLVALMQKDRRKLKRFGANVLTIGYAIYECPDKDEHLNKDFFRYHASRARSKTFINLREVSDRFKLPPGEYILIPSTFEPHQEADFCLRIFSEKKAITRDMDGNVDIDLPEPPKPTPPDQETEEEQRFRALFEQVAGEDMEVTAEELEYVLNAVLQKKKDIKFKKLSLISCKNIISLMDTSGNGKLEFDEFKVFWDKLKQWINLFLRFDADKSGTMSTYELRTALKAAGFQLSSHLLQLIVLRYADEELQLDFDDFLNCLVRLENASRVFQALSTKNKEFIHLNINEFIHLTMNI
T1 sequence (P04632 1-268 partner): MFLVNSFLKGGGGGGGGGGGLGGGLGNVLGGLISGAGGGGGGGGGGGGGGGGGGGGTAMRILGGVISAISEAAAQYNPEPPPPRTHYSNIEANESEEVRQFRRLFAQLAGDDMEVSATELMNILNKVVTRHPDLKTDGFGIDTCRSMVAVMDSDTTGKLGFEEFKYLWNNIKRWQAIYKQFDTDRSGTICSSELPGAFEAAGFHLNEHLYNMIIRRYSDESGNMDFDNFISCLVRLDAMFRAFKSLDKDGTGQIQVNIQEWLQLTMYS
The test can be described thus: Calpain inhibition continuous fluorescence (FRET) assay, Human Calpain 9/NS1. It counts as biochemical. To be noted: read-out: Human Calpain 9/NS1 IC50. The method, boiled down: (§1)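 Buffer 50 mM Tris pH 7.5/100 mM NaCl/1 mM DTT; enzyme + cpd preinc 25C; start w/ FRET substrate + CaCl2; kinetic 490/520 nm, 10 min; slopes 1-5 min; 4-PL IC50.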

The target of another test is T2, Human Calpain 1/NS1 (Homo sapiens, UniProt P07384).
T2 sequence (P07384 1-714): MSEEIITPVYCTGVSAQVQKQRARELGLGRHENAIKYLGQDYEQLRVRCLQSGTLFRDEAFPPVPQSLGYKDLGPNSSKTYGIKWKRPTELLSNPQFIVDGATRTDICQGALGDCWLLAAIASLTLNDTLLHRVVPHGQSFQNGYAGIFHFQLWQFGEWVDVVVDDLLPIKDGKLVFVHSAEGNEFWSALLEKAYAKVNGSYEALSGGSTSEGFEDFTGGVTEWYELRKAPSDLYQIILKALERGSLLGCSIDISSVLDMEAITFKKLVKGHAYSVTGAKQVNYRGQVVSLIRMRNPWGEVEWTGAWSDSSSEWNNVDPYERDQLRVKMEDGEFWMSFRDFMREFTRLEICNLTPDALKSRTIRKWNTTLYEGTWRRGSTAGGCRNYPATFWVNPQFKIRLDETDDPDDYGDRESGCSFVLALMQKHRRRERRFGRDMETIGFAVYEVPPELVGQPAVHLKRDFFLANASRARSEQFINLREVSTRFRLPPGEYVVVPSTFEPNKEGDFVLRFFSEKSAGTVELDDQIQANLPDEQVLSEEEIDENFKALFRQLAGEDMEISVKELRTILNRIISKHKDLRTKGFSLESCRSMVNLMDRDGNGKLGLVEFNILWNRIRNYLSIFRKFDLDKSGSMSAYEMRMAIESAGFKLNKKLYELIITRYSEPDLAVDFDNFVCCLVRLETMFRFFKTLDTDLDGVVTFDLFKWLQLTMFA
T2 sequence (P04632 1-268 partner): T1 sequence (P04632 1-268 partner)
The experiment in a line: Calpain inhibition continuous fluorescence (FRET) assay, Human Calpain 1/NS1. The format is biochemical. To be noted: read-out: Human Calpain 1/NS1 IC50. The method, boiled down: as §1

Another test concerns the target T3, Human Calpain 2/NS1 (Homo sapiens, UniProt P17655).
T3 sequence (P17655 1-700): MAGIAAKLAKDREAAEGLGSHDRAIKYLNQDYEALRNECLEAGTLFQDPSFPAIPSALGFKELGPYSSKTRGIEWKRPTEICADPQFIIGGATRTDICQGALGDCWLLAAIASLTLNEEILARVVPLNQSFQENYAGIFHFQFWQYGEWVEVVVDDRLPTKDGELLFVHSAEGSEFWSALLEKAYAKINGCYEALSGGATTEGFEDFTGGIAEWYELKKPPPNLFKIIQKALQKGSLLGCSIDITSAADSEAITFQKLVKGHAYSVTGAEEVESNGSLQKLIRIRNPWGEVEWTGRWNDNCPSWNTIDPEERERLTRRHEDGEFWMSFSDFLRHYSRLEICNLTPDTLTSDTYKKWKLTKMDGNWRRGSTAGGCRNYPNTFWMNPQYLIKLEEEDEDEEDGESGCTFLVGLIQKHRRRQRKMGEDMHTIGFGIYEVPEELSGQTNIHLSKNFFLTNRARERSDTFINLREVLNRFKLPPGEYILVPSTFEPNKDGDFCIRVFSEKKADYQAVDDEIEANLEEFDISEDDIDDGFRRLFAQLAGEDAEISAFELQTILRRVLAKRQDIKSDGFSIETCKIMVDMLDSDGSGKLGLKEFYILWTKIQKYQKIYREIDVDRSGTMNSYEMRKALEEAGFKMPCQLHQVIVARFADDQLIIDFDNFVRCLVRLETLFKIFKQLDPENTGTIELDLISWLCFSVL
T3 sequence (P04632 1-268 partner): T1 sequence (P04632 1-268 partner)
The experiment in a line: Calpain inhibition continuous fluorescence (FRET) assay, Human Calpain 2/NS1. The format is biochemical. The following applies: read-out: Human Calpain 2/NS1 IC50. The method, boiled down: as §1

The mark [3] stands for this setting: A23187-induced SBDP-150, western blot.
Setting [4] is: Column D, A23187-induced SBDP-150.

Where two headings read alike, the source gives them in different places.

Turning to `NC(=O)C(=O)C(Cc1ccccc1)NC(=O)c1cc(Cl)nn1-c1ncccn1` (stereo not drawn) [Compound 350, N-(4-amino-3,4-dioxo-1-phenylbutan-2-yl)-3-chloro-1-(pyrimidin-2-yl)-1H-pyrazole-5-carb oxamide], the IC50 in test [1] was less than 10 µM; in test [2] (setting [3]), 10 to 25 µM; on Human Calpain 9/NS1, less than 3 µM; on Human Calpain 1/NS1 it was less than 3 µM; on Human Calpain 2/NS1 it was less than 3 µM.

Consider `Cc1cc(C(=O)N[C@@H](Cc2ccccc2)C(=O)C(N)=O)n(-c2ccc(CNC(=O)Cc3ccccc3)cc2)n1` [Compound 159, (S)—N-(4-amino-3,4-dioxo-1-phenylbutan-2-yl)-3-methyl-1-(4-((2-phenylacetamido)methyl)phenyl)-1H-pyrazole-5-carboxamide], for which the IC50 in test [1] (Column E) was more than 25 µM; in test [2] (setting [4]), 10 to 25 µM; at Human Calpain 9/NS1 (Column C) it was less than 3 µM; on Human Calpain 1/NS1 (Column A), less than 3 µM; at Human Calpain 2/NS1 (Column B), less than 3 µM.

With `NC(=O)C(=O)C(Cc1ccccc1)NC(=O)c1nsnc1-c1ccccc1F` (stereo not drawn) [Compound 327, N-(4-amino-3,4-dioxo-1-phenylbutan-2-yl)-4-(2-fluorophenyl)-1,2,5-thiadiazole-3-carboxamide], the IC50 in test [1] was less than 10 µM; in test [2] (setting [3]) it was less than 10 µM; on Human Calpain 9/NS1 it was less than 3 µM; on Human Calpain 1/NS1 it was less than 3 µM; on Human Calpain 2/NS1 it was less than 3 µM.

Regarding `Cc1n[nH]c(-c2ccccc2)c1C(=O)N[C@@H](Cc1ccccc1)C(=O)C(N)=O` [Compound 257, (S)—N-(4-amino-3,4-dioxo-1-phenylbutan-2-yl)-3-methyl-5-phenyl-1H-pyrazole-4-carboxamide], the IC50 is less than 10 µM in test [1] (Column E); 10 to 25 µM in test [2] (setting [4]); less than 3 µM at Human Calpain 9/NS1 (Column C); less than 3 µM on Human Calpain 1/NS1 (Column A); less than 3 µM at Human Calpain 2/NS1 (Column B).

For the molecule `Cn1cc(C(=O)NC(Cc2ccccc2)C(=O)C(N)=O)c(-c2ccccc2C(F)F)n1` (stereo not drawn) [Compound 572, N-(4-amino-3,4-dioxo-1-phenylbutan-2-yl)-3-(2-(difluoromethyl)phenyl)-1-methyl-1H-pyrazole-4-carboxamide], the IC50 in test [1] was less than 10 µM; in test [2] (setting [3]), more than 25 µM; on Human Calpain 9/NS1, less than 3 µM; at Human Calpain 1/NS1, less than 3 µM; at Human Calpain 2/NS1, less than 3 µM.

With `CC[C@@H](C)[C@H](NC(=O)c1cn(C)nc1-c1ccccc1)C(=O)C(N)=O` [Compound 333, N-((3S,4R)-1-amino-4-methyl-1,2-dioxohexan-3-yl)-1-methyl-3-phenyl-1H-pyrazole-4-carboxamide], the IC50 was more than 25 µM in test [1]; more than 25 µM in test [2] (setting [3]); less than 3 µM at Human Calpain 9/NS1; less than 3 µM at Human Calpain 1/NS1; less than 3 µM at Human Calpain 2/NS1.

Regarding `NC(=O)C(=O)[C@H](Cc1ccccc1)NC(=O)c1cn(C#Cc2ccccc2)c2ccccc12` [Compound 252, (S)—N-(4-amino-3,4-dioxo-1-phenylbutan-2-yl)-1-(phenylethynyl)-1H-indole-3-carboxamide], the IC50 is more than 25 µM in test [1] (Column E); more than 25 µM in test [2] (setting [4]); more than 10 µM at Human Calpain 9/NS1 (Column C); more than 10 µM on Human Calpain 1/NS1 (Column A); more than 10 µM on Human Calpain 2/NS1 (Column B).

Consider `NC(=O)C(=O)C(Cc1ccccc1)NC(=O)c1nsnc1-c1cccc(COCc2ccccc2)c1` (stereo not drawn) [Compound 370, N-(4-amino-3,4-dioxo-1-phenylbutan-2-yl)-4-(3-((benzyloxy)methyl)phenyl)-1,2,5-thiadiazole-3-carboxamide], for which the IC50 in test [1] is more than 25 µM; in test [2] (setting [3]) it was 10 to 25 µM; at Human Calpain 9/NS1, less than 3 µM; at Human Calpain 1/NS1, less than 3 µM; at Human Calpain 2/NS1 it was less than 3 µM.

With `CC(C)c1cccc(-c2nn(C)cc2C(=O)N[C@@H](Cc2ccccc2)C(=O)C(N)=O)c1` [Compound 180, (S)—N-(4-amino-3,4-dioxo-1-phenylbutan-2-yl)-3-(3-isopropylphenyl)-1-methyl-1H-pyrazole-4-carboxamide], the IC50 in test [1] (Column E) is 10 to 25 µM; in test [2] (setting [4]) it was less than 10 µM; on Human Calpain 9/NS1 (Column C) it was less than 3 µM; on Human Calpain 1/NS1 (Column A), less than 3 µM; on Human Calpain 2/NS1 (Column B), less than 3 µM.

With `NC(=O)C(=O)[C@H](Cc1ccccc1)NC(=O)c1c(-c2ccccc2)oc2ccccc12` [Compound 249, (S)—N-(4-amino-3,4-dioxo-1-phenylbutan-2-yl)-2-phenylbenzofuran-3-carboxamide], the IC50 in test [1] (Column E) is more than 25 µM; in test [2] (setting [4]), 10 to 25 µM; on Human Calpain 9/NS1 (Column C) it was less than 3 µM; on Human Calpain 1/NS1 (Column A), less than 3 µM; on Human Calpain 2/NS1 (Column B), less than 3 µM.

For `COCCOCCOc1cccc(-n2nc(C)cc2C(=O)NC(Cc2ccccc2)C(=O)C(N)=O)c1` (stereo not drawn) [Compound 444, N-(4-amino-3,4-dioxo-1-phenylbutan-2-yl)-1-(3-(2-(2-methoxyethoxy)ethoxy)phenyl)-3-methyl-1H-pyrazole-5-carboxamide], the IC50 in test [1] was less than 10 µM; in test [2] (setting [3]), 10 to 25 µM; on Human Calpain 9/NS1, less than 3 µM; at Human Calpain 1/NS1, less than 3 µM; on Human Calpain 2/NS1, less than 3 µM.

Regarding `Cc1cc(C(=O)N[C@@H](Cc2ccccc2)C(=O)C(N)=O)n(-c2ccc(-c3ccc(F)cc3)cc2)n1` [Compound 126, (S)—N-(4-amino-3,4-dioxo-1-phenylbutan-2-yl)-1-(4′-fluoro-[1,1′-biphenyl]-4-yl)-3-methyl-1H-pyrazole-5-carboxamide], the IC50 in test [1] (Column E) was more than 25 µM; in test [2] (setting [4]), less than 10 µM; on Human Calpain 9/NS1 (Column C) it was less than 3 µM; at Human Calpain 1/NS1 (Column A), less than 3 µM; at Human Calpain 2/NS1 (Column B), less than 3 µM.
